Assay results as given in patent US8759343B2 (priority 2007, dated 2014).
Structures can show the parent of a compound that is named as a salt.

How the values were obtained:
[1] = target: nicotinic receptors comprising the α7 subunit (Rattus norvegicus, UniProt Q05941); assay: biochemical; format: binding
nicotinic receptors comprising the α7 subunit, sequence (Q05941 23-502): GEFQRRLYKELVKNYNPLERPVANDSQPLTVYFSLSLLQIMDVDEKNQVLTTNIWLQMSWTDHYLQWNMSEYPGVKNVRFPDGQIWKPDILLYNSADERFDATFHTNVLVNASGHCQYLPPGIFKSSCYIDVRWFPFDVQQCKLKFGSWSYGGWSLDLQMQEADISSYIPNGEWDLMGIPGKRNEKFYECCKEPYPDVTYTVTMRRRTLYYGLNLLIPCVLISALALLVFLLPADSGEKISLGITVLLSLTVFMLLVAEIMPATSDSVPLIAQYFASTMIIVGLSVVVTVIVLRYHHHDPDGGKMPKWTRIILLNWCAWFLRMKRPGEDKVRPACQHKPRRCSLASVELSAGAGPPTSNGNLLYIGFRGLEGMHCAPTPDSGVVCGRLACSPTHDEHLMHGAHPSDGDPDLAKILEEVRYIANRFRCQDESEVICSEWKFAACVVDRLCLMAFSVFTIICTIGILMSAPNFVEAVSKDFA

Row | Compound | melting point | IC50 [1]
1 | COc1ccc(-c2ccc(C34CCN(CC3)C4)cn2)cc1F | 125 to 126 °C | 
2 | CC(=O)c1cccc(-c2ccc(C34CCCN(CCC3)C4)cn2)c1 (as salt: HBr) | 284 to 285 °C | 
3 | FC(F)(F)c1cccc(-c2ccc(C34CCCN(CCC3)C4)cn2)c1 (as salt: HBr) | 155 to 157 °C | 
4 | c1ccc2c(-c3ccc(C45CCCN(CCC4)C5)cn3)cncc2c1 (as salt: HBr) | 332 to 334 °C | 
5 | FC(F)(F)c1cc(-c2ccc(C34CCCN(CCC3)C4)cn2)cc(C(F)(F)F)c1 (as salt: HBr) | 226 to 228 °C | 
6 | COc1ccccc1-c1ccc(C23CCCN(CCC2)C3)cn1 (as salt: HBr) | 239 to 241 °C | 
7 | COc1ccc(-c2ccc(C34CCCN(CCC3)C4)cn2)c(OC)c1 (as salt: HBr) | 198 to 200 °C | 
8 | FC(F)(F)Oc1cccc(-c2ccc(C34CCCN(CCC3)C4)cn2)c1 (as salt: HBr) | 267 to 269 °C | 
9 | c1cc(-c2ccc(C34CCCN(CCC3)C4)cn2)c2ccncc2c1 (as salt: HBr) | 246 to 248 °C | 
10 | COc1ccccc1-c1ccc(C23CCN(CC2)C3)cn1 (as salt: HBr) | 114 to 116 °C | 
11 | COc1ccc(-c2ccc(C34CCN(CC3)C4)cn2)c(OC)c1 (as salt: HBr) | 195 to 197 °C | 
12 | COc1ccc(OC)c(-c2ccc(C34CCN(CC3)C4)cn2)c1 (as salt: HBr) | 152 to 154 °C | 
13 | FC(F)(F)c1ccccc1-c1ccc(C23CCN(CC2)C3)cn1 (as salt: HBr) | 310 to 312 °C | 
14 | FC(F)(F)Oc1cccc(-c2ccc(C34CCN(CC3)C4)cn2)c1 (as salt: HCl) | 152 to 154 °C | 
15 | COc1ccc(-c2ccc(C34CCN(CC3)C4)cn2)cc1OC (as salt: HCl) | 247 to 249 °C | 
16 | FC(F)(F)c1cccc(-c2ccc(C34CCN(CC3)C4)cn2)c1 (as salt: HCl) | 191 to 192 °C | 
17 | c1cc(-c2ccc(C34CCN(CC3)C4)cn2)c[nH]1 (as salt: HCl) | 324 to 326 °C | 
18 | c1ccc2c(c1)nnn2-c1ccc(C23CCCN(CCC2)C3)cn1 (as salt: HCl) | 258 to 260 °C | 
19 | c1ccc2c(c1)sc1ccc(-c3ccc(C45CCCN(CCC4)C5)cn3)cc12 (as salt: HCl) | 242 to 244 °C | 
20 | COc1cccc(-c2ccc(C34CCCN(CCC3)C4)cn2)c1 (as salt: HCl) | 267 to 269 °C | 
21 | Cn1cccc1-c1ccc(C23CCN(CC2)C3)cn1 (as salt: HCl) | 248 to 250 °C | 
22 | c1cnc2ccc(-c3ccc(C45CCN(CC4)C5)cn3)cc2c1 (as salt: HCl) [Compound 12, 6-[5-(1-azabicyclo[2.2.1]hept-4-yl)pyridin-2-yl]quinoline] | 327 to 328 °C | 
23 | c1cnc2ccc(-c3ccc(C45CCN(CC4)C5)cn3)cc2c1 [Compound 12, 6-[5-(1-azabicyclo[2.2.1]hept-4-yl)pyridin-2-yl]quinoline] |  | 0.0371 µM
24 | c1cc2c(cc1-c1ccc(C34CCN(CC3)C4)cn1)OCO2 [Compound 16, 4-[6-(1,3-benzodioxol-5-yl)pyridin-3-yl]-1-azabicyclo[2.2.1]heptane] | 256 to 258 °C | 0.0091 µM
25 | Fc1cccc(-c2ccc(C34CCN(CC3)C4)cn2)c1 [Compound 19, 4-[6-(3-fluorophenyl)pyridin-3-yl]-1-azabicyclo[2.2.1]heptane] | 88 to 90 °C | 0.0138 µM
26 | c1cc(-c2ccc(C34CCN(CC3)C4)cn2)cc(-n2cccn2)c1 [Compound 113, 4-[6-(3-(pyrazol-1-yl)phenyl)pyridin-3-yl]-1-azabicyclo[2.2.1]heptane] | 114 to 116 °C | 0.0047 µM
